In patent publication US20250177408A1, “INHIBITOR OF INTERACTION BETWEEN YAP/TAZ AND TEAD, PREPARATION THEREOF, PHARMACEUTICAL COMPOSITION THEREOF AND USE THEREOF” (ETERN BIOPHARMA (SHANGHAI) CO., LTD., priority 2022, published 2025):

These molecules were tested against YAP-TEAD protein interaction (His-TEAD1 (209-426) protein, Bio-YAP peptide (60-100)) (Homo sapiens, UniProt P28347) (assay: YAP-TEAD protein interaction HTRF experiment). Conditions: His-TEAD1 (209-426) 10 nM, Bio-YAP peptide 50 nM, read-out: Activity of each compound in blocking YAP-TEAD protein interaction (grades of IC50 values).
YAP-TEAD protein interaction (His-TEAD1 (209-426) protein, Bio-YAP peptide (60-100)), sequence (P28347 209-426): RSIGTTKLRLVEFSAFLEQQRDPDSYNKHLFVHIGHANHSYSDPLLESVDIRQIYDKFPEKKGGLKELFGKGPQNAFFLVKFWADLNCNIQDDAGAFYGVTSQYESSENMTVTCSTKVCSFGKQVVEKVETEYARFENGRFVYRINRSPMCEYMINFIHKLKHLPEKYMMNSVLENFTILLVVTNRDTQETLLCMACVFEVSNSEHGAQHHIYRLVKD
Assay type: binding
Experimental: In this example, the YAP-TEAD protein interaction HTRF experiment was used to detect the activity of each compound in blocking the YAP-TEAD protein interaction.
The experiment was carried out according to the following operation steps:
Step 1: His-TEAD1 (209-426) protein was added to a 384-well detection white plate to a final concentration of 10 nM, and buffer was used as the background signal well. The compounds to be tested were subjected to 3-fold dilution and a total of 10 concentration gradients were set up, and each diluted solution was mixed well. A certain volume of the compound to be tested was added to each well separately, 2 replicates were set for each concentration, and the final concentration of DMSO was controlled at 1%. Incubation was carried out at room temperature for 20 minutes. The amino acid sequence of TAED1 (209-426) used in this step is shown in SEQ ID NO: 1:
After mixing evenly, the mixture was incubated at room temperature for 10 minutes.
Step 3: Anti-His-Eu cryptate gold and streptavidin-XL665 were diluted according to the instructions and mixed in equal proportions. A certain volume of the detection reagent was added to the well, and the mixture was incubated at room temperature for 1 hour.
Step 4: The signal was detected using an Envision (Perkin Elmer) microplate reader at an excitation wavelength of 320 nm and emission wavelengths of 665 nm and 620 nm.
Step 5: The signal was calculated based on the ratio of Em665/Em620*10000.
The inhibition percentage (%) was calculated using the following formula: […]
The half-maximal inhibitory concentration (IC50) values were calculated using GraphPad Prism software.

Compound | IC50 [µM]
CNC[C@@]1(c2ccccc2)Cc2c(cc(F)c(Cl)c2-c2c(C(N)=O)cc3c(ccn3C)c2F)O1 (atropisomer, axis not shown) [Compound I-2, (S)-5-((S)-5-Chloro-6-fluoro-2-((methylamino)methyl)-2-phenyl-2,3-dihydrobenzofuran-4-yl)-4-fluoro-1-methyl-1H-indole-6-carboxamide] | < 0.05
NC(=O)c1cc2c(c(F)c1-c1c(Cl)c(F)cc3c1C[C@](c1ccccc1)([C@@H]1CCCN1)O3)Oc1ncnc(N)c1O2 (atropisomer, axis not shown) [Compound 113, (S)-4-Amino-8-((S)-5-chloro-6-fluoro-2-phenyl-2-((S)-pyrrolidin-2-yl)-2,3-dihydrobenzofuran-4-yl)-9-fluorobenzo[5,6][1,4]dioxo [2,3-d]pyrimidine-7-carboxamide] | 0.05 to 0.5
NC(=O)c1cc2c(c(F)c1-c1c(Cl)c(F)cc3c1C[C@](c1ccccc1)([C@@H]1CCCN1)O3)OC(CO)CO2 (stereo partly drawn) [Compound I-53, (S)-7-((S)-5-Chloro-6-fluoro-2-phenyl-2-((S)-pyrrolidin-2-yl)-2,3-dihydrobenzofuran-4-yl)-8-fluoro-2-(hydroxymethyl)-2,4-dihydrobenzo[b][1,4] dioxoine-6-carboxamide] | < 0.05
NC(=O)c1cc2c(c(F)c1-c1c(Cl)c(F)cc3c1C[C@](c1ccccc1)([C@@H]1CCCN1)O3)OCCO2 [Compound 1′, 7-((2S,4R)-5-Chloro-6-fluoro-2-phenyl-2-((S)-pyrrolidin-2-yl)-2,3-dihydrobenzofuran-4-yl)-8-fluoro-2,3-dihydrobenzo[b][1,4]dioxine-6-carboxamide] | 0.05 to 0.5
CNC(=O)c1cc2c(c(F)c1-c1c(Cl)c(F)cc3c1C[C@](c1ccccc1)([C@@H]1CCCN1)O3)OC(CO)CO2 (stereo partly drawn) [Compound I-56, (S)-7-((S)-5-Chloro-6-fluoro-2-phenyl-2-((S)-pyrrolidin-2-yl)-2,3-dihydrobenzofuran-4-yl)-8-fluoro-2-(hydroxymethyl)-N-methyl-2,3-dihydrobenzo[b][1,4] dioxoine-6-carboxamide] | < 0.05
NC(=O)c1cc2c(c(F)c1-c1c(Cl)c(F)cc3c1C[C@](c1ccccc1)([C@@H]1CCCN1)O3)OC(CO)C2 (stereo partly drawn) [Compound I-52, (2S,6′S)-5-Chloro-6,7′-difluoro-2′-(hydroxymethyl)-2-phenyl-2-((S)-pyrrolidin-2-yl)-2,2′,3,3′-tetrahydro-[4,6′-bibenzofuran]-5′-carboxamide] | < 0.05
NC(=O)c1cc2c(c(F)c1-c1c(Cl)c(F)cc3c1C[C@](c1ccccc1)([C@@H]1CCCN1)O3)OCCOC2 (atropisomer, axis not shown) [Compound I-54, (S)-8-((S)-5-Chloro-6-fluoro-2-phenyl-2-((S)-pyrrolidin-2-yl)-2,3-dihydrobenzofuran-4-yl)-9-fluoro-2,3-trihydro-5H-benzo[e][1,4]dioxa-7-carboxamide] | < 0.05
CNC(=O)c1cc2c(c(F)c1-c1c(Cl)c(F)cc3c1C[C@](c1ccccc1)([C@@H]1CCCN1)O3)[C@H](O)CC2 (atropisomer, axis not shown) [Compound I-60, (1R,6S)-6-((S)-5-Chloro-6-fluoro-2-phenyl-2-((S)-pyrrolidin-2-yl)-2,3-dihydrobenzofuran-4-yl)-7-fluoro-1-hydroxy-N-methyl-2,3-dihydro-1H-indene-5-carboxamide] | 0.05 to 0.5
Cn1cc2c(n1)COc1c-2cc(C(N)=O)c(-c2c(Cl)c(F)cc3c2C[C@](c2ccccc2)([C@@H]2CC(O)CN2)O3)c1F (stereo partly drawn) [Compound 55, (7S)-7-((2S)-5-Chloro-6-fluoro-2-((2S)-4-hydroxypyrrolidin-2-yl)-2-phenyl-2,3-dihydrobenzofuran-4-yl)-6-fluoro-2-methyl-2,4-dihydrochromeno[3,4-c]pyrazole-8-carboxamide] | 0.5 to 5
NC(=O)c1cn2ccnc2c(F)c1-c1c(Cl)c(F)cc2c1C[C@](c1ccccc1)([C@@H]1CCCN1)O2 (atropisomer, axis not shown) [Compound I-11, (S)-7-((S)-5-Chloro-6-fluoro-2-phenyl-2-((S)-pyrrolidin-2-yl)-2,3-dihydrobenzofuran-4-yl)-8-fluoroimidazo[1,2-a]pyridine-6-carboxamide] | < 0.05

The next lines start with the values.

IC50 [µM] | Compound
0.05 to 0.5 | Cn1cc2c(n1)COc1c-2cc(C(N)=O)c(-c2c(Cl)c(F)cc3c2C[C@](c2ccccc2)([C@@H]2CCCN2)O3)c1F (atropisomer, axis not shown) [Compound 3′, (R)-7-((S)-5-Chloro-6-fluoro-2-phenyl-2-((S)-pyrrolidin-2-yl)-2,3-dihydrobenzofuran-4-yl)-6-fluoro-2-methyl-2,4-dihydrochromeno[3,4-c]pyrazole-8-carboxamide]
< 0.05 | CNC(=O)c1cc2c(c(F)c1-c1c(Cl)c(F)cc3c1C[C@](c1ccccc1)([C@@H]1CCCN1)O3)[C@@H](O)CC2 (atropisomer, axis not shown) [Compound I-59, (1S,6S)-6-((S)-5-Chloro-6-fluoro-2-phenyl-2-((S)-pyrrolidin-2-yl)-2,3-dihydrobenzofuran-4-yl)-7-fluoro-1-hydroxy-N-methyl-2,3-dihydro-1H-indene-5-carboxamide]
> 5 | [2H]c1c([2H])c([2H])c([C@]2([C@@H]3CCCN3)Cc3c(cc(F)c(Cl)c3-c3c(C(N)=O)cc4c(c3F)OCc3nn(C)cc3-4)O2)c([2H])c1[2H] (atropisomer, axis not shown) [Compound 117, (S)-7-((S)-5-Chloro-6-fluoro-2-(phenyl-d5)-2-((S)-pyrrolidin-2-yl)-2,3-dihydrobenzofuran-4-yl)-6-fluoro-2-methyl-2,4-dihydrochromeno[3,4-c]pyrazole-8-carboxamide]
< 0.05 | NC(=O)c1cc2c(c(F)c1-c1c(Cl)c(F)cc3c1C[C@](c1ccccc1)([C@@H]1CCCN1)O3)Oc1c(cnn(C3COC3)c1=O)O2 (atropisomer, axis not shown) [Compound 145, (S)-8-((S)-5-Chloro-6-fluoro-2-phenyl-2-((S)-pyrrolidin-2-yl)-2,3-dihydrobenzofuran-4-)-9-fluoro-2-(oxetan-3-yl)-1-oxo-1,2-dihydrobenzo[5,6][1,4]dioxo [2,3-d]pyridazine-7-carboxamide]
< 0.05 | N#CCC1Cc2cc(C(N)=O)c(-c3c(Cl)c(F)cc4c3C[C@](c3ccccc3)([C@@H]3CCCN3)O4)c(F)c2O1 (stereo partly drawn) [Compound I-55, (2S)-5-Chloro-2′-(cyanomethyl)-6,7′-difluoro-2-phenyl-2-((S)-pyrrolidin-2-yl)-2,2′,3,3′-tetrahydro-[4,6′-bibenzofuran]-5′-carboxamide]
0.05 to 0.5 | Cc1nnc2n1-c1cc(C(N)=O)c(-c3c(Cl)c(F)cc4c3C[C@](c3ccccc3)([C@@H]3CCCN3)O4)c(F)c1OC2 (atropisomer, axis not shown) [Compound 43, (S)-7-((S)-5-Chloro-6-fluoro-2-phenyl-2-((S)-pyrrolidin-2-yl)-2,3-dihydrobenzofuran-4-yl)-6-fluoro-1-methyl-4H-benzo[b][1,2,4]triazolo[4,3-d][1,4]oxazine-8-carboxamide]
0.05 to 0.5 | NC(=O)c1cc2c(c(F)c1-c1c(Cl)c(F)cc3c1C[C@](c1ccccc1)([C@@H]1CCCN1)O3)[C@H](O)CC2 (atropisomer, axis not shown) [Compound I-58, (1R,6S)-6-((S)-5-Chloro-6-fluoro-2-phenyl-2-((S)-pyrrolidin-2-yl)-2,3-dihydrobenzofuran-4-yl)-7-fluoro-1-hydroxy-2,3-dihydro-1H-indene-5-carboxamide]
< 0.05 | NC(=O)c1cc2c(c(F)c1-c1c(Cl)c(F)cc3c1C[C@](c1ccccc1)([C@@H]1CCCN1)O3)[C@@H](O)CC2 (atropisomer, axis not shown) [Compound I-57, (1S,6S)-6-((S)-5-Chloro-6-fluoro-2-phenyl-2-((S)-pyrrolidin-2-yl)-2,3-dihydrobenzofuran-4-yl)-7-fluoro-1-hydroxy-2,3-dihydro-1H-indene-5-carboxamide]
< 0.05 | NC(=O)c1cc2c(c(F)c1-c1c(Cl)c(F)cc3c1C[C@](c1ccccc1)([C@@H]1CCCN1)O3)OCC2 (atropisomer, axis not shown) [Compound I-31, (2S,4S)-5-Chloro-6,7′-difluoro-2-phenyl-2-((S)-pyrrolidin-2-yl)-2,2′,3,3′-tetrahydrofuran-[4,6′-bibenzofuran]-5′-carboxamide]
< 0.05 | CNC(=O)c1cc2c(c(F)c1-c1c(Cl)c(F)cc3c1C[C@](c1ccccc1)([C@@H]1CCCN1)O3)OCCN2 (atropisomer, axis not shown) [Compound I-26, (S)-7-((2S)-5-Chloro-6-fluoro-2-phenyl-2-((S)-pyrrolidin-2-yl)-2,3-dihydrobenzofuran-4-yl)-8-fluoro-N-methyl-3,4-dihydro-2H-benzo[b][1,4]oxazine-6-carboxamide]
